# Measured values as given in US11214803B2, “Modulators of YAP1 expression” (Ionis Pharmaceuticals, Inc., priority 2019, dated 2022).
# Strand notation (5' to 3'): a small letter for the sugar, then the base; units joined by * are phosphorothioate-linked, units joined directly phosphodiester-linked; [ ] holds rarer units or linkages, { } end groups; capitals alone tell only the bases. k = constrained ethyl (cEt); [5mC] = 5-methylcytosine; d = 2'-deoxy (DNA)
# Tests used:
# [1] = Tolerability in Sprague-Dawley rats, body and organ weights (Example 20); format: in vivo; details: male Sprague-Dawley rats, 50 mg/kg s.c. weekly for 6 weeks (7 doses); for Kidney weight / Liver weight / Spleen weight: end of study; for body weight: terminal, prior to necropsy
# Procedure: Terminal body weight was measured prior to necropsy. Ionis oligonucleotides that caused any changes in organ weights outside the expected range for modified oligonucleotides were excluded from further studies.
# [2] = Tolerability in Sprague-Dawley rats, kidney function, urine total protein to creatinine ratio (Example 20); details: male Sprague-Dawley rats, 50 mg/kg subcutaneously weekly for 6 weeks (total 7 doses)
# Procedure: Male Sprague-Dawley rats were maintained on a 12-hour light/dark cycle and fed ad libitum with Purina normal rat chow. Groups of 4 Sprague-Dawley rats each were weekly injected subcutaneously with 50 mg/kg of Ionis oligonucleotide for 6 weeks (total 7 doses). Forty-eight hours after the last dose, the rats were euthanized; and organs, urine and plasma were harvested for further analysis.
# To evaluate the effect of Ionis oligonucleotides on kidney function, urinary levels of total protein and creatinine were measured using an automated clinical chemistry analyzer (Hitachi Olympus AU400c, Melville, N.Y.).
# Yap1 mRNA [3] = assay: Dose-dependent inhibition of human Yap1 in SNU-449 cells (Example 9, RTS36584); format: cell-based; details: free uptake; for % UTC (Yap1 mRNA): approximately 48 hours
# Outline: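 SNU-449 cells (10,000/well) took up modified oligonucleotides by free uptake at a range of doses for about 48 h. Yap1 mRNA was quantified with primer-probe set RTS36584, normalised to RIBOGREEN total RNA and expressed as % untreated control; IC50 from linear regression on log/linear plot.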
# [4] = Tolerability in CD-1 mice, body and organ weights (Example 16); format: in vivo; details: male CD-1 mice, 50 mg/kg s.c. twice a week for four weeks (8 treatments), end of study (day 27)
# Procedure: (§1) Groups of four male CD-1 mice at 4-5 weeks of age (obtained from Charles River) were injected subcutaneously twice a week for four weeks (for a total of 8 treatments) with 50 mg/kg of modified oligonucleotides. One group of male CD-1 mice was injected with PBS. Mice were euthanized on day 27 post start of treatment (24 hrs following the final administration).
# (§2) Body weights of CD-1 mice were measured at the end of the study, and the average body weight for each group is presented in the table below. Modified oligonucleotides that caused any changes in organ weights outside the expected range for modified oligonucleotides were excluded from further studies.
# [5] = Tolerability in Sprague-Dawley rats, plasma chemistry markers (Example 20); format: in vivo; details: male Sprague-Dawley rats, 50 mg/kg s.c. weekly for 6 weeks (7 doses), 48 hours after last dose
# Procedure: Sprague-Dawley rats are a multipurpose model used for safety and efficacy evaluations. The rats were treated with Ionis modified oligonucleotides from the studies described in the Examples above and evaluated for changes in the levels of various plasma chemistry markers.
# [6] = Tolerability in CD-1 mice, plasma chemistry markers (Example 16); format: in vivo; details: male CD-1 mice, 50 mg/kg s.c. twice a week for four weeks (8 treatments), day 27
# Procedure: (§3) CD-1 mice were treated with modified oligonucleotides selected from studies described above and evaluated for changes in the levels of various plasma chemistry markers.
# as §1
# [7] = Tolerability in CD-1 mice, body and organ weights (Example 17); format: in vivo; details: male CD-1 mice, 50 mg/kg s.c. twice a week for four weeks (8 treatments), end of study (day 27)
# Procedure: as §1, §2
# [8] = Tolerability in CD-1 mice, plasma chemistry markers (Example 17); format: in vivo; details: male CD-1 mice, 50 mg/kg s.c. twice a week for four weeks (8 treatments), day 27
# Procedure: as §3, §1
# Yap1 mRNA [9] = assay: Dose-dependent inhibition of human Yap1 in A-431 cells (Example 8, 10,000 cells per well, RTS4814); format: cell-based; details: free uptake, approximately 48 hours, RTS4814; for Yap1 mRNA, % UTC: A-431 cells, 10,000 cells per well
# Outline: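 A-431 cells (10,000/well) dosed with modified oligonucleotides by free uptake; Yap1 mRNA measured ~48 h later with primer-probe set RTS4814, normalized to total RNA (RIBOGREEN). Values are % of untreated control; IC50 from linear regression on log/linear plot.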
# [10] = Tolerability in CD-1 mice, body and organ weights (Example 18); format: in vivo; details: male CD-1 mice, 50 mg/kg s.c. twice a week (total of 9 treatments), end of study (day 34)
# Procedure: as §1, with “5-6” for “4-5”, “9” for “8”, “34” for “27”, “hours” for “hrs”
# as §2
# [11] = Tolerability in CD-1 mice, plasma chemistry markers (Example 18); format: in vivo; details: male CD-1 mice, 50 mg/kg s.c. twice a week (total of 9 treatments), day 34
# Procedure: as §3
# as §1, with “5-6” for “4-5”, “9” for “8”, “34” for “27”, “hours” for “hrs”
# Yap1 mRNA [12] = assay: Inhibition of human Yap1 mRNA in SNU449 hepatocellular carcinoma xenograft tumors (Example 26); format: in vivo; details: SNU449 xenografts in NSG mice, 50 mg/kg twice weekly for five days, relative to PBS treated animals
# Procedure: A SNU449 hepatocellular carcinoma xenograft tumor model was used to evaluate activity of modified oligonucleotides targeted to human Yap1. Ten million SNU449 cells in 30% matrigel were implanted subcutaneously into the flanks of female NOD Cg-Prkdcscid ll2rgtm1Wjl/SzJ (NSG) mice (from Jackson Laboratory) at 4-6 weeks of age. When tumors reached an average volume of 100 mm^3, approximately two weeks post-implantation, groups of four mice each were administered at 50 mg/kg twice weekly with modified oligonucleotides for five days. Tumors were collected and tested for Yap1 mRNA knockdown by RT-qPCR. Yap1 mRNA levels were measured as previously described using the Human Yap1 primer-probe set RTS4814. Yap1 mRNA levels were normalized to actin-beta content, as measured by primer probe set RTS5002. Results are presented in the tables below as percent control of the amount of Yap1 mRNA relative to PBS treated animals (% control).
substance,measurement,setting,value
1076187 (kG*kA*kT*dT*dT*dA*dG*dG*dA*dT*dG*d[5mC]*dA*kT*kG*kG; antisense) [compound 1076187],Kidney weight,[1],3.0 g
same,Liver weight,[1],17 g
same,Spleen weight,[1],1.7 g
same,body weight,[1],344 g
same,URINE P/C ratio (total protein to creatinine ratio),[2],5
same,% UTC (Yap1 mRNA),Yap1 mRNA [3]; 31.3 nM,68 % UTC
same,% UTC (Yap1 mRNA),Yap1 mRNA [3]; 125.0 nM,46 % UTC
same,% UTC (Yap1 mRNA),Yap1 mRNA [3]; 500.0 nM,24 % UTC
same,% UTC (Yap1 mRNA),Yap1 mRNA [3]; 2000.00 nM,12 % UTC
same,IC50,Yap1 mRNA [3]; linear regression on a log/linear plot,100 nM
same,Kidney weight,[4],0.56 g
same,Liver weight,[4],1.95 g
same,Spleen weight,[4],0.14 g
same,body weight,[4],34 g
same,ALB,[5],2.91 g/dL
same,ALT,[5],54 U/L
same,AST,[5],113 U/L
same,BUN,[5],21 mg/dL
same,TBIL,[5],0.10 mg/dL
same,ALT,[6],57 U/L
same,AST,[6],90 U/L
same,Albumin,[6],2.3 g/dL
same,BUN,[6],20 mg/dL
same,TBIL,[6],0.18 mg/dL
1097224 (k[5mC]*kT*k[5mC]*dT*dT*dA*dT*dA*dT*dG*dG*dT*dT*kT*kT*kG; antisense) [compound 1097224],Kidney weight,[1],4.5 g
same,Liver weight,[1],13 g
same,Spleen weight,[1],1.4 g
same,body weight,[1],316 g
same,Kidney weight,[7],0.54 g
same,Liver weight,[7],1.93 g
same,Spleen weight,[7],0.16 g
same,body weight,[7],37 g
same,URINE P/C ratio (total protein to creatinine ratio),[2],87
same,ALT,[8],39 U/L
same,AST,[8],78 U/L
same,BUN,[8],21 mg/dL
same,TBIL,[8],0.09 mg/dL
same,ALB,[5],1.61 g/dL
same,ALT,[5],31 U/L
same,AST,[5],51 U/L
same,BUN,[5],86 mg/dL
same,TBIL,[5],0.07 mg/dL
1074755 (k[5mC]*kA*k[5mC]*dT*dT*dT*dT*dA*d[5mC]*dA*dT*dT*dA*kG*kG*kA; antisense) [compound 1074755],Kidney weight,[1],3.3 g
same,Liver weight,[1],16 g
same,Spleen weight,[1],2.1 g
same,body weight,[1],357 g
same,"Yap1 mRNA, % UTC",Yap1 mRNA [9]; 31.3 nM,28 % UTC
same,"Yap1 mRNA, % UTC",Yap1 mRNA [9]; 125.0 nM,9 % UTC
same,"Yap1 mRNA, % UTC",Yap1 mRNA [9]; 500.0 nM,5 % UTC
same,"Yap1 mRNA, % UTC",Yap1 mRNA [9]; 2000.00 nM,3 % UTC
same,IC50,"Yap1 mRNA [9]; A-431 cells, linear regression on log/linear plot",< 20 nM
same,URINE P/C ratio (total protein to creatinine ratio),[2],5
same,Kidney weight,[10],0.61 g
same,Liver weight,[10],2.27 g
same,Spleen weight,[10],0.19 g
same,body weight,[10],39 g
same,ALT,[11],88 U/L
same,AST,[11],104 U/L
same,BUN,[11],22 mg/dL
same,TBIL,[11],0.21 mg/dL
same,"Yap1 mRNA in tumors, % control",Yap1 mRNA [12],70 % control
same,ALB,[5],2.99 g/dL
same,ALT,[5],57 U/L
same,AST,[5],97 U/L
same,BUN,[5],29 mg/dL
same,TBIL,[5],0.12 mg/dL
